The results in this text go back to US8691183B2, “Means for the detection and treatment of prostate cells” (Eberhard-Karls-Universitaet Tuebingen Universitaetsklinikum, priority 2008, dated 2014).

For data set [1], the system named is PC-3 prostate carcinoma cells. Nature of the data set: Confocal laser scanning microscopy (CLSM) of cellular uptake. Conditions: 20 minutes incubation, 10 μg/ml. The class given is cell-based, human. The procedure: (§1) The cells were grown to 80% confluency at 37° C., 5% CO2 (vol/vol) in 4-well plates (NUNC, Wiesbaden, Germany) with about 300,000 cells per well.
(§2) U373 human glioma cells, human prostate carcinoma cells PC3 and LNCaP, human Jurkat lymphoma cells, and human colon carcinoma cells Colo205 were grown in RPMI1640 ready mix medium containing L-glutamine and 10% fetal bovine serum (FBS)-gold (PAA Laboratories, Pasching, Austria). U2OS human osteosarcoma cells and HeLa human cervix carcinoma cells were grown in high glucose Dulbeccos modified Eagle's medium containing GlutaMax™ and pyrovate and 10% FBS-gold. Healthy human prostate cells (CC2555, Lonza, Verviers, Belgium) were cultivated in prostate endothelial cell growth medium (PrEGM, Lonza, Verviers, Belgium).
(§3) The compounds 1, 2 and 4 were dissolved at 1 mg/ml in pure ethanol (Riedel de Haen, Sigma-Aldrich, Taufkirchen, Germany) and then diluted in the appropriate medium for the cells to 10 μg/ml of conjugate and 1% ethanol. The cells were incubated at 37° C. in an atmosphere of 5% CO2 for 20 minutes with the compounds. After this, the cells were rinsed three times with medium and then incubated with medium again. This experiment was also performed with free sulforhodamine B with a corresponding amount.
The compound 10 was dissolved in culture medium (260 μM). Lys(FITC)-aminobourgeonal (compound 7) was dissolved in culture medium with 1% ethanol (260 μM). The cells were incubated for 20 minutes (compound 10) and for 2 days (compounds 7 and 10). This assay was also performed with free FITC. After the incubation the cells were rinsed three times with medium and again incubated in medium. Propidium iodide (PI) (molecular probes, Eugene, Oreg., USA) was added to stain death cells.
(§4) The confocal laser scanning microscopy was performed on an inverted LSM510 laser scanning microscope (Carl Zeiss) (objective: LD Achroplan 40×0.6, Plan Neofluar 20×0.50, 40×0.75). For the rhodamine fluorescence excitation the 543 nm beam of a helium-neon laser with suitable beam splitters and barrier filters were used. […]

Data set [2] has as its system LNCaP prostate carcinoma cells. Described as above. As to conditions: 20 minutes incubation, 10 μg/ml. The class given is cell-based, human. The procedure:
as §1, §2, §3
(§5) The confocal laser scanning microscopy was performed on an inverted LSM510 laser scanning microscope (Carl Zeiss) (objective: LD Achroplan 40×0.6, Plan Neofluar 20×0.50, 40×0.75). For the rhodamine fluorescence excitation the 543 nm beam of a helium-neon laser with suitable beam splitters and barrier filters were used. All measures were performed at least three times on living, non-fixed cells.

Data set [3] deals with non-prostate tumor cell lines (colo 205 colon carcinoma, U373 glioma, U2OS osteosarcoma, HeLa cervix carcinoma, jurkat lymphoma). The data set is described as above. Conditions: all other (non-prostate) tumor cells; 20 minutes incubation; 10 μg/ml. The class given is cell-based, human. The method, then:
as §1, §2, §3, §5

The test system of data set [4] is healthy human epithelial prostate cells (CC2555). The data set is described as above. As to conditions: 20 minutes incubation, 10 μg/ml. Format: cell-based. The method, then:
as §1, §2
The compounds 1, 2 and 4 were dissolved at 1 mg/ml in pure ethanol (Riedel de Haen, Sigma-Aldrich, Taufkirchen, Germany) and then diluted in the appropriate medium for the cells to 10 μg/ml of conjugate and 1% ethanol. The cells were incubated at 37° C. in an atmosphere of 5% CO2 for 20 minutes with the compounds. […]
as §4

The subject of data set [5] is human prostate carcinoma (PC3) implanted into nude mice. Kind of data set: CLSM of frozen sections of implanted tumor after intraperitoneal injection. The class given is in vivo, nude mouse. The procedure: (§6) PC3 and LNCaP prostate tumor cells were grown to 80% confluency, detached with Accutase™ (PAA Laboratories, Pasching, Austria) and then harvested. The cells were washed with PBS three times and then drawn up into a 30 g Micro-Fine™ insulin syringe (Becton Dickinson, Franklin Lakes, N.J., USA). Approximately 5×10^5 cells per mouse were injected into the right thigh of a male CD1 Nu/Nu mouse (Charles River, WIGA, Sulzfeld, Germany). The tumor growth was monitored and after 10 to 14 days mice bearing tumors with 2-3 mm in diameter were treated with the conjugate. 1.5 mg of the compound 1 were dissolved in 300 μl PBS containing 20% ethanol and applied intraperitoneally. After 90 minutes of circulation the mice were sacrificed and subsequently the tumors and organs were removed, embedded in Jung tissue freezing medium (Leica Instruments, Nussloch, Germany) and frozen in liquid nitrogen. Frozen sections (5 μm thickness) were prepared (LD3000 Cryotom, Leica Biosystems GmbH, Nussloch, Germany) and the rhodamine staining was analyzed by confocal laser scanning
To evaluate the in- and efflux of the rhodamine conjugated compound 1, the experiment was repeated with circulation times of 20 minutes and 180 minutes.
(§7) The experiments were repeated two times.

Data set [6] deals with nude mice organs. Kind of data set: CLSM of frozen sections of nude mice organs after intraperitoneal injection. Conditions: 90 minutes after intraperitoneal injection. Format: in vivo, nude mouse. The procedure:
as §6, §7

Data set [7] has as its system PC3 prostate carcinoma. Nature of the data set: Touch prints of the tumor after intraperitoneal injection. The class given is in vivo, nude mouse. Conditions: 20 minutes after intraperitoneal injection; no fixation. The procedure:
For touch prints, the tumor of a mouse treated with the rhodamine containing compound 1 (1.5 mg intraperitoneally for 20 minutes) was excised. The tumor was cut and the cells were streaked onto a slide without fixation. The tumor cells were immediately analyzed by CLSM (without fixation).
as §7

A short description of data set [8]: Tolerability in the animals. The class given is in vivo. As to conditions: intraperitoneal injection, nude mice.

`CCN(CC)c1ccc2c(-c3ccc(S(=O)(=O)NCCCCCCCCCCC=O)cc3S(=O)(=O)O)c3ccc(=[N+](CC)CC)cc-3oc2c1` [compound 1, sulforhodamine-sulfonamido-aminoundecylic aldehyde]: the “uptake into the cells (rhodamine staining, CLSM)” value in data set [1] is on record as “take up the compound according to the invention into the cytoplasm”; in data set [2], “take up the compound according to the invention into the cytoplasm”; in data set [3] it was “do not take up the compound according to the invention”; in data set [4] it was “take up the compound according to the invention into the cytoplasm”. Moreover, the “absorption into the cytoplasm of the prostate carcinoma cells” value in data set [5] (20 minutes after intraperitoneal injection) is “very well absorbed”. Also, in data set [5] (90 minutes after intraperitoneal injection, in comparison to lymph nodes and lung), the “rhodamine fluorescence of the prostate carcinoma in frozen sections” value is “significantly stronger red fluorescence”. Moreover, in data set [5] (180 minutes after intraperitoneal injection), the “compound in the cytoplasm of the prostate carcinoma cells” value is on record as “efflux of the compound out of the cytoplasm”. Further, the “staining of healthy prostate tissue of the mouse” value in data set [6] is given as “almost no staining”. Also, in data set [7], the “compound in tumor cells of touch prints” value is reported as “reached the cytoplasm of the prostate carcinoma cells”. The tolerability result in data set [8] is given as “very well tolerated by the animals”.
